Laboratory results as given in patent publication US9139587B2, “N1-pyrazolospiroketone acetyl-CoA carboxylase inhibitors” (Pfizer Inc., priority 2009, dated 2015).

How the values were obtained:
[1] = target: T1, recombinant human ACC2 (rhACC2) (Homo sapiens, UniProt O00763, V2141I); assay: recombinant hACC2 Transcreener assay (direct inhibition of ACC2 activity); type: biochemical; settings: Transcreener ADP detection FP assay, 50 μM ATP, 30 μM acetyl-CoA, 50 min at 25° C.
T1 construct: a full length Cytomax clone of ACC2 was purchased from Cambridge Bioscience Limited; made in house; host or cells: CHO cells (tetracycline-induced, pcDNA5 FRT TO-TOPO)
Procedure: For example direct inhibition of ACC activity, for the compound of Formula (1) was determined using preparations of recombinant human ACC1 (rhACC1) and recombinant human ACC2 (rhACC2). Representative sequences of the recombinant human ACC1 and ACC2 that can be used in the assay are provided in FIG. 1 (SEQ ID NO. 1) and FIG. 2 (SEQ. ID NO. 2), respectively.
[3] Preparation of rhACC2. Human ACC2 inhibition was measured using purified recombinant human ACC2 (hrACC2). Briefly, a full length Cytomax clone of ACC2 was purchased from Cambridge Bioscience Limited and was sequenced and subcloned into PcDNA5 FRT TO-TOPO (Invitrogen, Carlsbad, Calif.). The ACC2 was expressed in CHO cells by tetracycline induction and harvested in 5 liters of DMEM/F12 with glutamine, biotin, hygromycin and blasticidin with 1 μg/mL tetracycline (Invitrogen, Carlsbad, Calif.). The conditioned medium containing ACC2 was then applied to a Softlink Soft Release Avidin column (Promega, Madison, Wis.) and eluted with 5 mM biotin. 4 mgs of ACC2 were eluted at a concentration of 0.05 mg/mL (determined by A280) with an estimated purity of 95% ([…]). The purified ACC2 was dialyzed in 50 mM Tris, 200 mM NaCl, 4 mM DTT, 2 mM EDTA, and 5% glycerol. The pooled protein was frozen and stored at −80° C., with no loss of activity upon thawing. For measurement of ACC2 activity and assessment of ACC2 inhibition, test compounds were dissolved in DMSO and added to the rhACC2 enzyme as a 5× stock with a final DMSO concentration of 1%.
[4] Measurement of human ACC2 inhibition. hACC2 was assayed in a Costar #3676 (Costar, Cambridge, Mass.) 384-well plate using the Transcreener ADP detection FP assay kit (Bellbrook Labs, Madison, Wisconsin) using the manufacturer's recommended conditions for a 50 uM ATP reaction. The final conditions for the assay were 50 mM HEPES, pH 7.2, 5 mM MgCl2, 5 mM tripotassium citrate, 2 mM DTT, 0.1 mg/mL BSA, 30 μM acetyl-CoA, 50 μM ATP, and 8 mM KHCO3 Typically, a 10 μl reaction was run for 50 min at 25° C., and 10 μl of Transcreener stop and detect buffer was added and the combination incubated at room temp for an additional 1 hour. The data was acquired on an Envision Fluorescence reader (Perkinelmer) using a 620 excitation Cy5 FP general dual mirror, 620 excitation Cy5 FP filter, 688 emission (S) and a 688 (P) emission filter.

[2] = target: T2, recombinant human ACC1 (rhACC1) (Homo sapiens, UniProt Q13085, DEL44-44); assay: recombinant hACC1 Transcreener assay (direct inhibition of ACC1 activity); type: biochemical; settings: Transcreener ADP detection FP assay, 50 μM ATP, 30 μM acetyl-CoA, 120 min at 25° C.
T2 construct: recombinant baculovirus containing full length human ACC1 cDNA; made in house; host or cells: SF9 insect cells (baculovirus)
Procedure: For example direct inhibition of ACC activity, for the compound of Formula (1) was determined using preparations of recombinant human ACC1 (rhACC1) and recombinant human ACC2 (rhACC2). Representative sequences of the recombinant human ACC1 and ACC2 that can be used in the assay are provided in FIG. 1 (SEQ ID NO. 1) and FIG. 2 (SEQ. ID NO. 2), respectively. Preparation of rhACC1. Two liters of SF9 cells, infected with recombinant baculovirus containing full length human ACC1 cDNA, were suspended in ice-cold lysis buffer (25 mM Tris, pH 7.5; 150 mM NaCl; 10% glycerol; 5 mM imidazole (EMD Bioscience; Gibbstown, N.J.); 2 mM TCEP (BioVectra; Charlottetown, Canada); Benzonase nuclease (10000 U/100 g cell paste; Novagen; Madison, Wis.); EDTA-free protease inhibitor cocktail (1 tab/50 mL; Roche Diagnostics; Mannheim, Germany). Cells were lysed by 3 cycles of freeze-thaw and centrifuged at 40,000×g for 40 minutes (4° C.). Supernatant was directly loaded onto a HisTrap FF crude column (GE Healthcare; Piscataway, N.J.) and eluted with an imidazole gradient up to 0.5 M over 20 column volumes (CV). ACC1-containing fractions were pooled and diluted 1:5 with 25 mM Tris, pH 7.5, 2 mM TCEP, 10% glycerol and direct loaded onto a CaptoQ (GE Healthcare) column and eluted with an NaCl gradient up to 1 M over 20 CV's. Phosphate groups were removed from purified ACC1 by incubation with lambda phosphatase (100 U/10 μM target protein; New England Biolabs; Beverly, Mass.) for 14 hours at 4° C.; okadaic acid was added (1 μM final concentration; Roche Diagnostics) to inhibit the phosphatase. Purified ACC1 was exchanged into 25 mM Tris, pH 7.5, 2 mM TCEP, 10% glycerol, 0.5 M NaCl by 6 hour dialysis at 4° C. Aliquots were prepared and frozen at −80° C. […] The final conditions for the assay were 50 mM HEPES, pH 7.2, 10 mM MgCl2, 7.5 mM tripotassium citrate, 2 mM DTT, 0.1 mg/mL BSA, 30 μM acetyl-CoA, 50 μM ATP, and 10 mM KHCO3 Typically, a 10 μl reaction was run for 120 min at 25° C., and 10 μl of Transcreener stop and detect buffer was added and the combination incubated at room temp for an additional 1 hour. The data was acquired on a Envision Fluorescence reader (Perkinelmer) using a 620 excitation Cy5 FP general dual mirror, 620 excitation Cy5 FP filter, 688 emission (S) and a 688 (P) emission filter.

T1 sequence (O00763 whole entry V2141I): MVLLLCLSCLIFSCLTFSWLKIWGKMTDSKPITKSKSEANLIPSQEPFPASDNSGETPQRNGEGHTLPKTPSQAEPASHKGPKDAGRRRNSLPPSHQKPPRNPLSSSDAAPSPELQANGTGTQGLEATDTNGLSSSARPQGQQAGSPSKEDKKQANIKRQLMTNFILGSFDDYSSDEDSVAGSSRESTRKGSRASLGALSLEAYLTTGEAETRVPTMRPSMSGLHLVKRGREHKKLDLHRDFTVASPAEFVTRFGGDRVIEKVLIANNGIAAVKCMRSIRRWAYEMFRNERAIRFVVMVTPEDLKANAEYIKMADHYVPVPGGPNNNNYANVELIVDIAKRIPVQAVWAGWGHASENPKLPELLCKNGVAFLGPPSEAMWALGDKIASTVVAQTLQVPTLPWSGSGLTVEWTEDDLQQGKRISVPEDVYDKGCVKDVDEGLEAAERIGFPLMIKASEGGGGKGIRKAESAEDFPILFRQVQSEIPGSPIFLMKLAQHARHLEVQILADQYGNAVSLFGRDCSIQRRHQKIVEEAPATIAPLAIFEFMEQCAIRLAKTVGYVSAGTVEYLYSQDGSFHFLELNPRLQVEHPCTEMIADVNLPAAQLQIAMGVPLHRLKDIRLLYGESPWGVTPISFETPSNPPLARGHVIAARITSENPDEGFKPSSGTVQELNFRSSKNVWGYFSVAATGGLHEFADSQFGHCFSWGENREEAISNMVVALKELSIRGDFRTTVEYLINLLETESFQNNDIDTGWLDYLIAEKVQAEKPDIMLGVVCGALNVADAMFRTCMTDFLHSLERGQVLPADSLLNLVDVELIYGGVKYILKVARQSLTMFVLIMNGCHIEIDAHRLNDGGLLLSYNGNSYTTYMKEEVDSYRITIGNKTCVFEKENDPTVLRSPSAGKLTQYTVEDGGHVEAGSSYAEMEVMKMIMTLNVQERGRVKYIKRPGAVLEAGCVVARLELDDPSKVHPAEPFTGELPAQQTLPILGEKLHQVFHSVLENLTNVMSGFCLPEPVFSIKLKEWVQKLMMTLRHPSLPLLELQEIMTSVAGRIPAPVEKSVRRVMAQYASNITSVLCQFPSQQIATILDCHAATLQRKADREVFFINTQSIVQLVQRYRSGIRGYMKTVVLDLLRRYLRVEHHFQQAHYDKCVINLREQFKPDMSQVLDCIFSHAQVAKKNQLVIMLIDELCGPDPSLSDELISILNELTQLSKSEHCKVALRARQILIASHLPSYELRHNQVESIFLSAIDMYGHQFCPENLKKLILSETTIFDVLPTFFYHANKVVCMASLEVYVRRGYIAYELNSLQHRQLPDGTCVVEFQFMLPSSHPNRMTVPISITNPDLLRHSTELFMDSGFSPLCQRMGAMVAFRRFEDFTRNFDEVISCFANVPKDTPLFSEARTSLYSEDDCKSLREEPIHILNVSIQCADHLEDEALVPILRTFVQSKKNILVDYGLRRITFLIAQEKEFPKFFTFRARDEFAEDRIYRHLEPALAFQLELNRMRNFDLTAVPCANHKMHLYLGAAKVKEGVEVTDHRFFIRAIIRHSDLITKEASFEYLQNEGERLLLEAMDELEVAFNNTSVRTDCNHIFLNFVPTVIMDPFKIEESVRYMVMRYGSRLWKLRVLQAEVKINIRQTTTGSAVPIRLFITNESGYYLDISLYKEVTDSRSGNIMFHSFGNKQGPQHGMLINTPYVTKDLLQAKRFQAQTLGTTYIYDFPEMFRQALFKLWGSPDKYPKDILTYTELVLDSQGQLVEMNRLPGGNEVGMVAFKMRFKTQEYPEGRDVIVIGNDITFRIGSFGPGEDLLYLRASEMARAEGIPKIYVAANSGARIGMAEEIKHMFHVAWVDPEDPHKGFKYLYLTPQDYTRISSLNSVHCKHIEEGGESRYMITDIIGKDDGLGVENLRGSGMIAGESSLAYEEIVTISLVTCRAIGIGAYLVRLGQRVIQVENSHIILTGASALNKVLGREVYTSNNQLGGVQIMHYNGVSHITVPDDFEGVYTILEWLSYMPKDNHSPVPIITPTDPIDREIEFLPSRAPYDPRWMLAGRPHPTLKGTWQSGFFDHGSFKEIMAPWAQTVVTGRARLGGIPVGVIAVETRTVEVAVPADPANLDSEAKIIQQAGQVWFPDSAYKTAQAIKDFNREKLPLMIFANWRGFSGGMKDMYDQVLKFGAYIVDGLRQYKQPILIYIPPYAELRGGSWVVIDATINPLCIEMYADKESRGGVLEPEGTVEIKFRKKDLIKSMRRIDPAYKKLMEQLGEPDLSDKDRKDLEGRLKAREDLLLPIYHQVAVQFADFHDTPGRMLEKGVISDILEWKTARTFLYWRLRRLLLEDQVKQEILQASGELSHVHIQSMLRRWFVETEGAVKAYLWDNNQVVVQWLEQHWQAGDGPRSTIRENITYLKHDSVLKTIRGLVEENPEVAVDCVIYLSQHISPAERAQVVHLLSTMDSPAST

Row | IC50 [1] [nM] | IC50 [2] [nM] | SMILES
1 | 3760 | 9790 | CC(C)n1ncc2c1C(=O)CC1(CCN(C(=O)c3c(O)cnc4ccccc34)CC1)C2 [Example 2A-70]
2 | 387 | 1060 | CC(C)n1ncc2c1C(=O)CC1(CCN(C(=O)c3c[nH]c4ncccc34)CC1)C2 [Example 2A-71]
3 | 290 | 599 | CC(C)n1ncc2c1C(=O)CC1(CCN(C(=O)c3ccc4cnccc4c3O)CC1)C2 [Example 2A-72]
4 | 37.7 | 113 | Cc1nn(C(C)C)c2c1CC1(CCN(C(=O)c3ccc4[nH]ncc4c3)CC1)CC2=O [Example 2A-75]
5 | 1500 | 6620 | CC(C)n1nc(C#N)c2c1C(=O)CC1(CCN(C(=O)c3ccc4[nH]ncc4c3)CC1)C2 [Example 2A-76]
6 | 1300 | 6160 | CC(C)(C)n1nc(C#N)c2c1C(=O)CC1(CCN(C(=O)c3ccc4[nH]ncc4c3)CC1)C2 [Example 2A-77]
7 | 1270 | 3840 | CC(C)(C)n1nc(C#N)c2c1C(=O)CC1(CCN(C(=O)c3ccc4[nH]ncc4c3)CC1)C2 [Example 2A-78]
8 | 48.6 | 96.1 | Cc1nc2ccc(C(=O)N3CCC4(CC3)CC(=O)c3c(cnn3C(C)C)C4)cc2[nH]1 [Example 3A-1, 1-isopropyl-1′-(2-methyl-1H-benzo[d]imidazole-5-carbonyl)-4,6-dihydrospiro[indazole-5,4′-piperidin]-7(1H)-one]
9 | 373 | 1530 | CC(C)n1ncc2c1C(=O)C(C)(C)C1(CCN(C(=O)c3ccc4[nH]ncc4c3)CC1)C2 [Example 6A-1, 1′-(1H-indazole-5-carbonyl)-1-isopropyl-6,6-dimethyl-4,6-dihydrospiro[indazole-5,4′-piperidin]-7(1H)-one]
10 | 39.8 | 63.2 | Cc1nn(C(C)C)c2c1CC1(CCN(C(=O)c3ccc4[nH]cnc4c3)CC1)CC2=O [Example 7A-1, 1′-(1H-benzo[d]imidazole-5-carbonyl)-1-isopropyl-3-methyl-4,6-dihydrospiro[indazole-5,4′-piperidin]-7(1H)-one]
11 | 1660 | 7620 | CC(C)n1nc(C#N)c2c1C(=O)CC1(CCN(C(=O)c3ccc4[nH]cnc4c3)CC1)C2 [Example 8A-1, 1′-(1H-benzo[d]imidazole-5-carbonyl)-1-isopropyl-7-oxo-1,4,6,7-tetrahydrospiro[indazole-5,4′-piperidine]-3-carbonitrile]
12 | 264 | 704 | O=C1CC2(CCN(C(=O)c3ccc4[nH]ncc4c3)CC2)Cc2cnn(C3COC3)c21 [Example 9A-1, 1′-(1H-indazole-5-carbonyl)-1-(oxetan-3-yl)-4,6-dihydrospiro[indazole-5,4′-piperidin]-7(1H)-one]
13 | 22.3 | 43.8 | CC(C)n1ncc2c1C(=O)CC1(CCN(C(=O)c3ccc4[nH]ncc4c3)CC1)C2 [Example 10A-1, 1′-(1H-indazole-5-carbonyl)-1-isopropyl-4,6-dihydrospiro[indazole-5,4′-piperidin]-7(1H)-one]
14 | 31.8 | 147 | CC(C)n1ncc2c1C(=O)CC1(CCN(C(=O)c3ccc(-c4ncc[nH]4)cc3)CC1)C2 [Example 11A-1, 1′-(4-(1H-imidazol-2-yl)benzoyl)-1-isopropyl-4,6-dihydrospiro[indazole-5,4′-piperidin]-7(1H)-one]
15 | 658 | 1480 | Cc1cc(C(=O)N2CCC3(CC2)CC(=O)c2c(cnn2C(C)C)C3)c(N)c(C)n1 [Example 11A-2]
16 | 25.4 | 74.7 | CC(C)n1ncc2c1C(=O)CC1(CCN(C(=O)c3cccc(-c4c[nH]cn4)c3)CC1)C2 [Example 11A-3]
17 | 5800 | 19600 | Cc1cc(C(=O)N2CCC3(CC2)CC(=O)c2c(cnn2C(C)C)C3)n(-c2cccnc2)n1 [Example 11A-4]
18 | 13200 | 16400 | Cc1cc(C(=O)N2CCC3(CC2)CC(=O)c2c(cnn2C(C)(C)C)C3)n(-c2cccnc2)n1 [Example 11A-5]
